# Tested on: 18 hour fasted Wistar rats
# Assay: hypoglycaemic activity in 18 hour fasted Wistar rats
# Type: in vivo
# Conditions: for mean fall (blood glucose): compound at 15 mg/kg p.o., chlorpropamide positive control, dose not given
# Description: The compound was evaluated for hypoglycaemic activity in 18 hour fasted Wistar rats. […] The mean fall recorded was 24 mg/100 ml blood, from an initial mean of 91 to mean of 67 mg/100 ml blood.
Compound,mean fall (blood glucose),hypoglycaemic effect (15 mg/kg p.o.),"mean blood level after treatment (15 mg/kg p.o., after treatment)",initial mean blood level (initial value of the treated group)
"CCCNC(=O)NS(=O)(=O)c1ccc(Cl)cc1 [chlorpropamide, reference compound]",18 mg/100 ml blood,,,
"OC[C@H]1O[C@@H](c2c(O)ccc3cc(Cc4ccc(O)cc4)oc23)[C@H](O)[C@@H](O)[C@@H]1O [formula 1, 6-hydroxy-2-p-hydroxybenzylbenzofuran-7-C-β-D-glucopyranoside]",24 mg/100 ml blood,hypoglycaemic effect was recorded in all the treated rats,67 mg/100 ml blood,91 mg/100 ml blood

# From patent US6562791B1, “Glucopyranoside, process for isolation thereof, pharmaceutical composition containing same and use thereof” (Council of Scientific and Industrial Research, priority 2002, dated 2003)
